Measurements reported in patent US20050042293A1, “Polymeric systems for drug delivery and uses thereof” (The University of British Columbia, priority 1997, published 2005).
In brackets after ≈: the same amount, converted by molar mass. Where two headings read alike, the source gives them in different places.

Key:
[1] = Water solubility studies by the present inventors
[2] = cited from earlier work
LNCaP cells [3] = experiment: LNCaP cell proliferation in vitro (crystal violet, 492 nm absorbance); format: cell-based, human; settings: for % Growth: relative to control wells (100%)
Description: LNCap cells are human metastatic prostate adenocarcinoma cells that are used as a model for prostate cancer (see, e.g., Pousette et al., Prostate 31:198, 1997). In one study, LNCaP cells were seeded at concentrations of 2×10^3 and 1×10^3 cells/well in 96 well plates. […] After incubation, the cells were fixed with 1% glutaraldehyde solution, and stained for 5 minutes with 0.5% crystal violet. The dye was successively eluted with 100 μl of buffer solution and the absorbance was read on a Titertek Multiskan microplate reader using a wavelength of 492 nm absorbance. Cell growth was expressed as a percentage relative to control wells in the absence of the compound (set at 100%).

[4] = Drug-dependent solidification: time for paste pellets to break up under stirring at 300 rpm at 37° C.; format: physicochemical; settings: 10% w/w drug in 40:60 (TB:MePEG350) paste; 1 hour at 37° C. then 300 rpm
Description: Fifteen milligrams of each composition were placed in a 20 mL glass scintillation vial and cooled to 4° C. to form uniform solid pellets. Five milliliters of ice cold phosphate-buffered saline (PBS; pH 7.4) containing 0.2% bovine serum albumin (Fraction 4, Boehringer Mannheim) were placed on top of the pellet, and the vial was placed in a stationary position in a 37° C. oven for 1 hour. At this time, a stir bar was placed in the vial and stirring was commenced at 300 rpm until the paste pellet disintegrated.

[5] = In vitro drug release from TB:MePEG350 pastes into PBS/albumin with octanol phase; format: physicochemical; settings: 10% drug-loaded TB:MePEG350 (40:60) paste
Description: Fifteen milligrams of each composition were placed in 20 mL glass scintillation vials and cooled to 4° C. to form uniform solid pellets. Five milliliters of ice cold phosphate-buffered saline (PBS; pH 7.4) containing 0.2% bovine serum albumin (Fraction 4, Boehringer Mannheim) were placed on top of the pellet followed by 5 mL of octanol (Fisher Scientific). The octanol formed an upper imiscible phase on top of the PBS so that any drug released into the PBS would partition into the octanol phase.
UV/VIS analysis was performed by determining the absorbance at the specified wavelength. Calibration graphs of the drugs in octanol were established by measuring the absorbance of a set of standards of each drug in octanol in the 0 to 50 μg/mL concentration range.

[6] = single dose in humans; cited from earlier work
LNCaP cells [7] = experiment: Apoptosis / DNA fragmentation assay in LNCaP cells; format: cell-based, human

For `CC[C@@]1(O)C(=O)OCc2c1cc1n(c2=O)Cc2cc3ccccc3nc2-1` [Camptothecin], the solubility ([1]; water) is given as < 2 µg/mL, the solubility in water ([2]; water) is given as 1 to 2 µg/mL and the “solubility in water (in words)” value ([2]; water) is given as “insoluble in water”. For the same compound, the “percentage of cells to which the drug was toxic” value (LNCaP cells [3]; 0.001 nM) was “over 60%”, the “492 nm Absorbance” value (LNCaP cells [3]; 0.001 nM, 5 days) was 0.169 ± 0.05 and the “% Growth” value (LNCaP cells [3]; 0.001 nM, 5 days) was 36%. For the same compound, the “492 nm Absorbance” value (LNCaP cells [3]; 0.05 nM, 5 days) was 0.14 ± 0.04, the “% Growth” value (LNCaP cells [3]; 0.05 nM, 5 days) was 29% and the “492 nm Absorbance” value (LNCaP cells [3]; 0.1 nM, 5 days) was 0.10 ± 0.02. For the same compound, the “% Growth” value (LNCaP cells [3]; 0.1 nM, 5 days) was 21%, the “492 nm Absorbance” value (LNCaP cells [3]; 1 nM, 5 days) was 0.10 ± 0.02 and the “% Growth” value (LNCaP cells [3]; 1 nM, 5 days) was 21%. For the same compound, the “492 nm Absorbance” value (LNCaP cells [3]; 10 nM, 5 days) was 0.088 ± 0.02, the “% Growth” value (LNCaP cells [3]; 10 nM, 5 days) was 17% and the “492 nm Absorbance” value (LNCaP cells [3]; 100 nM, 5 days) was 0.038 ± 0.01. The “% Growth” value (LNCaP cells [3]; 100 nM, 5 days) was 8% and the “IC50 against LNCaP cells (in words)” value (LNCaP cells [3]; inferred from Table 12) was “femtomolar concentration range”.

For `COc1ccc2c(c1)c(CC(=O)O)c(C)n2C(=O)c1ccc(Cl)cc1` [Indomethacin], the “solubility in water (in words)” value ([2]; water) is listed as “practically insoluble in water”.

In the case of `O=C1c2c(O)cccc2Cc2cccc(O)c21` [Anthralin], the “solubility in water (in words)” value ([2]; water) is listed as “practically insoluble in water”.

With `COc1cc2c(c(OC)c1OC)-c1ccc(OC)c(=O)cc1[C@@H](NC(C)=O)CC2` [colchicine] the solubility ([1]; pH 7.4, aqueous buffer, water solubility in PBS/albumin, PBS/albumin (pH 7.4)) was > 500 µg/mL and the “time paste pellet stayed intact under stirring” value [4] was 2.5 min.

With `O=c1c(-c2ccc(O)cc2)coc2cc(O)cc(O)c12` [Genistein] the water solubility ([1]; water) was “approximately 1 μg/mL”, the solubility ([1]; water, water solubility) was < 2 µg/mL and the “total encapsulated drug released” value ([5]; by day 7) was 50%. For the same compound, the “solubility in water (in words)” value ([2]; water) was “practically insoluble in water” and the “solubility in water (in words)” value ([2]; water, listed as genistein) was “insoluble in water”.

For `C[C@H]1C[C@H]2[C@@H]3CCC4=CC(=O)C=C[C@]4(C)[C@@]3(F)[C@@H](O)C[C@]2(C)[C@@]1(O)C(=O)CO` [Betamethasone], the solubility in water ([2]; water) is listed as 190 µg/mL (≈ 484 µM).

With `CN(Cc1cnc2nc(N)nc(N)c2n1)c1ccc(C(=O)N[C@@H](CCC(=O)O)C(=O)O)cc1` [methotrexate] the encapsulated drug released ([5]; first 24 hours) was “almost all the encapsulated drug”, the “disintegration time under stirring” value [4] was 30 s and the solubility (physchem; pH 7.4, aqueous buffer) was > 500 µg/mL.

For `CC1=C(/C=C/C(C)=C/C=C/C(C)=C/C(=O)O)C(C)(C)CCC1` [Tretinoin], the solubility (physchem; water) is given as < 2 µg/mL, the “solubility in water (in words)” value ([2]; water) is given as “practically insoluble in water” and the “solubility in water (in words)” value ([2]; water, listed as tretinoin) is given as “insoluble in water”.

In the case of `C[C@@H]1[C@H](O)[C@@H](C)/C=C/C=C/CC/C=C/C=C/C=C/C=C/C(O[C@H]2O[C@H](C)[C@@H](O)[C@H](N)[C@@H]2O)CC2O[C@](O)(CC(O)C(O)CCC(O)CC(O)CC(O)CC(=O)O[C@H]1C)CC(O)C2C(=O)O` (some centres unmarked) [nystatin], the “solubility in water (in words)” value ([2]; water) is listed as “insoluble in water”.

For `COc1cc(/C=C/C(=O)CC(=O)/C=C/c2ccc(O)c(OC)c2)ccc1O` [Curcumin], the solubility (physchem; water) is listed as < 2 µg/mL and the “solubility in water (in words)” value ([2]; water) is listed as “practically insoluble in water”.

For `CC(=O)O[C@H]1C(=O)[C@@]2(C)[C@H]([C@H](OC(=O)c3ccccc3)[C@]3(O)C[C@H](OC(=O)[C@H](O)[C@@H](NC(=O)c4ccccc4)c4ccccc4)C(C)=C1C3(C)C)[C@]1(OC(C)=O)CO[C@@H]1C[C@@H]2O` [Paclitaxel], the toxic limit [6] is given as 200 mg, the solubility (physchem; water) is given as < 2 µg/mL and the “DNA fragmentation (gel electrophoresis)” value (LNCaP cells [7]; 100 nM, 18 hours of treatment) is given as “induced DNA fragmentation”. For the same compound, the “apoptosis by optical microscopy” value (LNCaP cells [7]; paclitaxel treated cells, intracellular apoptotic bodies) was “clear evidence of apoptosis”, the solubility in water ([2]; water) was 1 to 2 µg/mL and the “solubility in water (in words)” value ([2]; water) was “insoluble in water”. The “492 nm Absorbance” value (LNCaP cells [3]; 0.001 nM, 5 days) was 0.049 ± 0.05, the “% Growth” value (LNCaP cells [3]; 0.001 nM, 5 days) was 100% and the “492 nm Absorbance” value (LNCaP cells [3]; 0.01 nM, 5 days) was 0.40 ± 0.03. For the same compound, the “% Growth” value (LNCaP cells [3]; 0.01 nM, 5 days) was 81%, the “492 nm Absorbance” value (LNCaP cells [3]; 0.05 nM, 5 days) was 0.36 ± 0.02 and the “% Growth” value (LNCaP cells [3]; 0.05 nM, 5 days) was 73%. The “492 nm Absorbance” value (LNCaP cells [3]; 0.1 nM, 5 days) was 0.20 ± 0.03, the “% Growth” value (LNCaP cells [3]; 0.1 nM, 5 days) was 40% and the “492 nm Absorbance” value (LNCaP cells [3]; 1 nM, 5 days) was 0.025 ± 0.01. For the same compound, the “% Growth” value (LNCaP cells [3]; 1 nM, 5 days) was 5%, the “492 nm Absorbance” value (LNCaP cells [3]; 10 nM, 5 days) was 0.027 ± 0.01 and the “% Growth” value (LNCaP cells [3]; 10 nM, 5 days) was 5%. The “492 nm Absorbance” value (LNCaP cells [3]; 100 nM, 5 days) was 0.033 ± 0.01, the “% Growth” value (LNCaP cells [3]; 100 nM, 5 days) was 6% and the “lowest concentration causing inhibition of LNCaP cell growth” value (LNCaP cells [3]; 5 days) was 10 pM. For the same compound, the IC50 (LNCaP cells [3]; Homo sapiens, LNCaP, 120 h, 5 days incubation, read-out: IC50, LNCaP cell growth) was ~0.09 nM.

For `C[C@@H]1[C@H](O)[C@@H](C)/C=C/C=C/C=C/C=C/C=C/C=C/C=C/[C@H](O[C@@H]2O[C@H](C)[C@@H](O)[C@H](N)[C@@H]2O)C[C@@H]2O[C@](O)(C[C@@H](O)C[C@@H](O)[C@H](O)CC[C@@H](O)C[C@@H](O)CC(=O)O[C@H]1C)C[C@H](O)[C@H]2C(=O)O` [Amphotericin], the solubility (physchem; water) is listed as < 2 µg/mL, the “solubility in water (in words)” value ([2]; water at pH 6 to 7) is listed as “insoluble in water” and the “solubility in water (in words)” value ([2]; water) is listed as “insoluble in water”.

For `C[C@@H]1C[C@H]2[C@@H]3CCC4=CC(=O)C=C[C@]4(C)[C@@]3(F)[C@@H](O)C[C@]2(C)[C@@]1(O)C(=O)CO` [Dexamethasone], the solubility in water ([2]; water) is listed as 10 µg/mL (≈ 25.5 µM).
